Assay results: the NIST ThermoML archive (doi:10.1016/j.fluid.2008.10.008)
Where “and” joins values, the source holds several entries; their conditions need not be identical. Equal entries are not always repeated. Numbers after ± are expanded uncertainties.

Assay: activity coefficient (dimensionless); of the first substance listed, at infinite dilution; xn = mol fraction of the nth substance listed
Conditions: 101 kPa, Liquid, Chromatography, x1 = 0

For `C=CCCCCC` [1-heptene] + CCCC[n+]1ccc(C)cc1.Cc1ccc(S(=O)(=O)[O-])cc1, the activity coefficient (328.15 K) was 28.7 and 29.2, the activity coefficient (333.15 K) was 29.5 and 28.2 and the activity coefficient (338.15 K) was 27.2 and 27.9. For the same molecule, the activity coefficient (343.15 K) was 28 and 27.5.
In the case of `C#CCCCCC` [1-heptyne] + CCCC[n+]1ccc(C)cc1.Cc1ccc(S(=O)(=O)[O-])cc1, the activity coefficient (328.15 K) is reported as 5.76 and 5.88, the activity coefficient (333.15 K) is reported as 6.03 and 5.9 and the activity coefficient (338.15 K) is reported as 6.01 and 5.98. For the same molecule, the activity coefficient (343.15 K) was 6.14 and 6.
With `C#CCCCC` [1-hexyne] + CCCC[n+]1ccc(C)cc1.Cc1ccc(S(=O)(=O)[O-])cc1 the activity coefficient (328.15 K) was 4.25 and 4.19, the activity coefficient (333.15 K) was 4.43 and 4.26 and the activity coefficient (338.15 K) was 4.37 and 4.61. For the same molecule, the activity coefficient (343.15 K) was 4.8 and 4.36.
With `C#CCCCCCC` [1-octyne] + CCCC[n+]1ccc(C)cc1.Cc1ccc(S(=O)(=O)[O-])cc1 the activity coefficient (328.15 K) was 8.01 and 8.11, the activity coefficient (333.15 K) was 8.45 and 8.13 and the activity coefficient (338.15 K) was 8.27 and 8.18. For the same molecule, the activity coefficient (343.15 K) was 8.56 and 8.3.
With `C=CCCC` [1-pentene] + CCCC[n+]1ccc(C)cc1.Cc1ccc(S(=O)(=O)[O-])cc1 the activity coefficient (328.15 K) was 16.8 and 15.3, the activity coefficient (333.15 K) was 16.1 and 14.8 and the activity coefficient (338.15 K) was 15.3 and 15.5. The activity coefficient (343.15 K) was 15.7 and 14.2.
In the case of `C#CCCC` [1-pentyne] + CCCC[n+]1ccc(C)cc1.Cc1ccc(S(=O)(=O)[O-])cc1, the activity coefficient (328.15 K) is reported as 3.05 and 3.09, the activity coefficient (333.15 K) is reported as 3.37 and 3.06 and the activity coefficient (338.15 K) is reported as 3.36 and 3.2. The activity coefficient (343.15 K) was 3.38 and 3.41.
For `c1ccccc1` [benzene] + CCCC[n+]1ccc(C)cc1.Cc1ccc(S(=O)(=O)[O-])cc1, the activity coefficient (328.15 K) was 4.01 ± 0.18, the activity coefficient (333.15 K) was 3.92 and 4 and the activity coefficient (338.15 K) was 3.97 and 3.95. The activity coefficient (343.15 K) was 3.94 and 3.97.
For `C1CCCCCC1` [cycloheptane] + CCCC[n+]1ccc(C)cc1.Cc1ccc(S(=O)(=O)[O-])cc1, the activity coefficient (328.15 K) was 21.2 and 23.4, the activity coefficient (333.15 K) was 20.8 ± 1 and the activity coefficient (338.15 K) was 20 ± 0.9. The activity coefficient (343.15 K) was 19.8 and 19.9.
In the case of `C1CCCCC1` [cyclohexane] + CCCC[n+]1ccc(C)cc1.Cc1ccc(S(=O)(=O)[O-])cc1, the activity coefficient (328.15 K) is reported as 18.6 and 20.6, the activity coefficient (333.15 K) is reported as 18 and 18.1 and the activity coefficient (338.15 K) is reported as 17.5 ± 0.8. The activity coefficient (343.15 K) was 16.9 and 17.
In the case of `C1CCCCCCC1` [cyclooctane] + CCCC[n+]1ccc(C)cc1.Cc1ccc(S(=O)(=O)[O-])cc1, the activity coefficient (328.15 K) is reported as 26.2 and 28.4, the activity coefficient (333.15 K) is reported as 25.2 and 25 and the activity coefficient (338.15 K) is reported as 23.7 and 24.6. For the same molecule, the activity coefficient (343.15 K) was 23.6 and 24.5.
In the case of `C1CCCC1` [cyclopentane] + CCCC[n+]1ccc(C)cc1.Cc1ccc(S(=O)(=O)[O-])cc1, the activity coefficient (328.15 K) is reported as 13.6 and 12.5, the activity coefficient (333.15 K) is reported as 12.4 and 12.8 and the activity coefficient (338.15 K) is reported as 11.7 and 12. The activity coefficient (343.15 K) was 11.9 and 11.7.
For `CCO` [ethanol] + CCCC[n+]1ccc(C)cc1.Cc1ccc(S(=O)(=O)[O-])cc1, the activity coefficient (328.15 K) was 0.905 and 0.893, the activity coefficient (333.15 K) was 0.895 and 0.881 and the activity coefficient (338.15 K) was 0.88 and 0.87. For the same molecule, the activity coefficient (343.15 K) was 0.871 and 0.863.
With `CCCCCCC` [heptane] + CCCC[n+]1ccc(C)cc1.Cc1ccc(S(=O)(=O)[O-])cc1 the activity coefficient (328.15 K) was 53 and 55, the activity coefficient (333.15 K) was 51.8 and 51 and the activity coefficient (338.15 K) was 50.6 and 50.4. The activity coefficient (343.15 K) was 49.3 and 49.5.
For `C=CCCCC` [hex-1-ene] + CCCC[n+]1ccc(C)cc1.Cc1ccc(S(=O)(=O)[O-])cc1, the activity coefficient (328.15 K) was 21.2 and 21.1, the activity coefficient (333.15 K) was 20.7 and 20.1 and the activity coefficient (338.15 K) was 20.3 and 19.5. For the same molecule, the activity coefficient (343.15 K) was 20 and 20.1.
In the case of `CCCCCC` [hexane] + CCCC[n+]1ccc(C)cc1.Cc1ccc(S(=O)(=O)[O-])cc1, the activity coefficient (328.15 K) is reported as 37.3 and 38.9, the activity coefficient (333.15 K) is reported as 37.2 ± 1.7 and the activity coefficient (338.15 K) is reported as 36 ± 1.7. The activity coefficient (343.15 K) was 36.9 and 37.1.
For `CO` [methanol] + CCCC[n+]1ccc(C)cc1.Cc1ccc(S(=O)(=O)[O-])cc1, the activity coefficient (328.15 K) was 0.555 and 0.542, the activity coefficient (333.15 K) was 0.545 and 0.542 and the activity coefficient (338.15 K) was 0.541 and 0.536. For the same molecule, the activity coefficient (343.15 K) was 0.548 and 0.527.
With `C=CCCCCCC` [oct-1-ene] + CCCC[n+]1ccc(C)cc1.Cc1ccc(S(=O)(=O)[O-])cc1 the activity coefficient (328.15 K) was 39.7 and 40.6, the activity coefficient (333.15 K) was 39.7 and 39.2 and the activity coefficient (338.15 K) was 38.7 and 38.9. The activity coefficient (343.15 K) was 37.8 and 38.
With `CCCCCCCC` [octane] + CCCC[n+]1ccc(C)cc1.Cc1ccc(S(=O)(=O)[O-])cc1 the activity coefficient (328.15 K) was 71.6 and 75.8, the activity coefficient (333.15 K) was 71.3 and 70.6 and the activity coefficient (338.15 K) was 67.8 and 68.4. For the same molecule, the activity coefficient (343.15 K) was 68.7 and 68.9.
With `CCCCC` [pentane] + CCCC[n+]1ccc(C)cc1.Cc1ccc(S(=O)(=O)[O-])cc1 the activity coefficient (328.15 K) was 27.6 and 28.7, the activity coefficient (333.15 K) was 27.5 and 27.8 and the activity coefficient (338.15 K) was 27.7 and 27.8. For the same molecule, the activity coefficient (343.15 K) was 27.3 and 27.4.
